Some test systems named below: BT-549; SK-MEL-5; TK-10; LOX IMVI; MDA-MB-231; NCI-H460; NCI-H23; SF-295; MDA-N; MDA-MB-435; CCRF-CEM; OVCAR-5; T47D; Malme-3M; HCT-15; IGROV-1; SK-OV-3; MCF7; HL-60; SF-539.
What all share (assay): growth of human tumour cells (NCI), 48 h

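Cultured in 96-well plates, cells were exposed to test compound for 48 hours across five concentrations. GI50: concentration for 50% inhibition of growth.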 Active and inactive are the calls of the source. Rule as the data show it: active = GI50 up to about 1.1 µM and inactive = higher. Some results are limits rather than exact numbers.

`NCCSCc1ccccc1Cl`: the GI50 with BT-549 was 69.7 µM (inactive); in the experiment with SK-MEL-5 it was 63 µM (inactive); in the experiment with TK-10 it was 26.4 µM (inactive); with LOX IMVI, 25.7 µM (inactive); with MDA-MB-231, 45.6 µM (inactive); with NCI-H460, 31.3 µM (inactive). The GI50 in the experiment on NCI-H23 is 30.1 µM (inactive); in the experiment with SF-295, 41.1 µM (inactive); in the experiment on MDA-N, 30.5 µM (inactive); in the experiment on MDA-MB-435, 36 µM (inactive); with CCRF-CEM, 25.2 µM (inactive); in the experiment on OVCAR-5 it was > 100 µM (inactive). Besides, the GI50 in the experiment on T47D was 42.4 µM (inactive); in the experiment with Malme-3M it was 65.8 µM (inactive); in the experiment with HCT-15, more than 100 µM; with IGROV-1 it was 51.4 µM (inactive).

As for `O=C1C(c2c(O)[nH]c3ccc([N+](=O)[O-])cc23)=Nc2ccccc21`, the GI50 in the experiment with BT-549 was 52.5 µM (inactive); in the experiment on SK-MEL-5 it was > 100 µM (inactive); in the experiment with TK-10, 34.6 µM (inactive); with LOX IMVI, > 100 µM (inactive); in the experiment on SK-OV-3 it was > 100 µM (inactive); in the experiment with MDA-MB-231, 31.7 µM (inactive). Also, the GI50 was > 100 µM (inactive) with NCI-H460; > 100 µM (inactive) in the experiment with NCI-H23; 43 µM (inactive) with SF-295; 57.1 µM (inactive) in the experiment with MCF7; > 100 µM (inactive) in the experiment on MDA-N; > 100 µM (inactive) with MDA-MB-435. Further, the GI50 was > 100 µM (inactive) in the experiment with CCRF-CEM; > 100 µM (inactive) in the experiment on OVCAR-5; > 100 µM (inactive) with T47D; > 100 µM (inactive) in the experiment on Malme-3M; more than 100 µM in the experiment with HCT-15; 10 µM (inactive) in the experiment with IGROV-1.

On to `CC1(C)OC(CCO)CN1C(=O)OCc1ccccc1` (stereo not given), for which the GI50 with BT-549 is 33.6 µM (inactive); with SK-MEL-5, > 100 µM (inactive); in the experiment with TK-10, > 100 µM (inactive); with LOX IMVI, > 100 µM (inactive); with SK-OV-3, > 100 µM (inactive); with MDA-MB-231, > 100 µM (inactive). The GI50 in the experiment with HL-60, with NCI-H460, in the experiment with NCI-H23, with SF-295, with MCF7 and with MDA-N was > 100 µM (inactive) in each case. In addition, the GI50 was > 100 µM (inactive) in the experiment on MDA-MB-435; > 100 µM (inactive) with CCRF-CEM; > 100 µM (inactive) in the experiment with OVCAR-5; > 100 µM (inactive) in the experiment with Malme-3M; more than 100 µM with HCT-15; > 100 µM (inactive) in the experiment on SF-539. In addition, the GI50 in the experiment on IGROV-1 is > 100 µM (inactive).

For the molecule `Brc1ccc2c(c1)-c1nc3c(cc1CC2)CCc1ccc(Br)cc1-3`, the GI50 in the experiment on BT-549, in the experiment with SK-MEL-5, in the experiment with TK-10, with LOX IMVI, in the experiment on SK-OV-3 and in the experiment with MDA-MB-231 was > 100 µM (inactive) each time. Also, the GI50 in the experiment with NCI-H460, in the experiment with NCI-H23, in the experiment with SF-295, in the experiment on MCF7, in the experiment with MDA-N and in the experiment on MDA-MB-435 was > 100 µM (inactive) each time. For the same molecule, the GI50 was > 100 µM (inactive) in the experiment on CCRF-CEM; > 100 µM (inactive) in the experiment on OVCAR-5; > 100 µM (inactive) with T47D; > 100 µM (inactive) with Malme-3M; more than 100 µM in the experiment with HCT-15; > 100 µM (inactive) with IGROV-1.

As to `O=c1c2sc3ccccc3sc=2c(=O)c2c(Cl)c(Cl)c(Cl)c(Cl)c12`, the GI50 with BT-549, with SK-MEL-5, in the experiment with TK-10, with SK-OV-3, in the experiment with MDA-MB-231 and in the experiment with NCI-H460 was > 100 µM (inactive) each time. For the same molecule, the GI50 in the experiment with NCI-H23, in the experiment with SF-295, with MCF7, with MDA-N, with MDA-MB-435 and in the experiment with CCRF-CEM was > 100 µM (inactive) throughout. For the same molecule, the GI50 in the experiment with OVCAR-5 is > 100 µM (inactive); in the experiment with T47D, > 100 µM (inactive); with Malme-3M it was > 100 µM (inactive); in the experiment on HCT-15 it was 39.7 µM; with IGROV-1, > 100 µM (inactive).

Turning to `COc1cc(C)c2c(=O)c3ccccc3n(C)c2c1`, the GI50 in the experiment with BT-549 is 20.8 µM (inactive); in the experiment with SK-MEL-5 it was > 10 µM (inactive); in the experiment with TK-10, 40.9 µM (inactive); in the experiment on LOX IMVI it was 17.4 µM (inactive); with SK-OV-3, 43.1 µM (inactive); with MDA-MB-231, 25.6 µM (inactive). Also, the GI50 in the experiment on HL-60 was 32.7 µM (inactive); in the experiment with NCI-H460 it was 33.3 µM (inactive); with NCI-H23, 24.3 µM (inactive); with SF-295, 15.5 µM (inactive); in the experiment on MCF7, 28.2 µM (inactive); with MDA-N it was 55.6 µM (inactive). Moreover, the GI50 in the experiment on MDA-MB-435 was 40.8 µM (inactive); in the experiment with CCRF-CEM it was 21.9 µM (inactive); with OVCAR-5, 16.9 µM (inactive); with Malme-3M it was 27.1 µM (inactive); in the experiment with HCT-15, 22.3 µM; in the experiment with SF-539, 15.6 µM (inactive). For the same molecule, the GI50 in the experiment with IGROV-1 is 26.9 µM (inactive).

Consider `CC1=C2CC(C)(C)CC(=O)C2(C)CCC1=O` (stereo not given), for which the GI50 in the experiment on BT-549, in the experiment with SK-MEL-5, in the experiment on TK-10, in the experiment with LOX IMVI, in the experiment on SK-OV-3 and with MDA-MB-231 was > 100 µM (inactive) each time. For the same molecule, the GI50 in the experiment on HL-60, in the experiment on NCI-H460, in the experiment with NCI-H23, in the experiment on SF-295, with MCF7 and in the experiment with MDA-N was > 100 µM (inactive) in each case. In addition, the GI50 is > 100 µM (inactive) in the experiment on CCRF-CEM; > 100 µM (inactive) with OVCAR-5; > 100 µM (inactive) with T47D; > 100 µM (inactive) with Malme-3M; more than 100 µM in the experiment with HCT-15; > 100 µM (inactive) in the experiment on SF-539. Moreover, the GI50 with IGROV-1 was > 100 µM (inactive).

`CCN(CC)CCCNC(=O)c1cc2cc(NC(=O)c3cc4cc([N+](=O)[O-])ccc4[nH]3)ccc2[nH]1`: the GI50 with BT-549 is > 100 µM (inactive); in the experiment on SK-MEL-5, > 100 µM (inactive); with TK-10, > 100 µM (inactive); in the experiment with SK-OV-3, > 100 µM (inactive); in the experiment on MDA-MB-231, 54 µM (inactive); in the experiment on NCI-H460 it was > 100 µM (inactive). In addition, the GI50 with NCI-H23 was > 100 µM (inactive); with SF-295 it was 44.3 µM (inactive); with MCF7 it was 48.1 µM (inactive); in the experiment with MDA-N it was 70.1 µM (inactive); in the experiment on MDA-MB-435, 51.1 µM (inactive); with OVCAR-5 it was > 100 µM (inactive). Moreover, the GI50 in the experiment with T47D was > 100 µM (inactive); in the experiment with HCT-15, more than 100 µM; in the experiment on SF-539, 48.5 µM (inactive); in the experiment with IGROV-1 it was > 100 µM (inactive).

Regarding `C(=N\c1ccc2c(c1)Cc1ccccc1-2)/c1ccccn1`, the GI50 in the experiment on BT-549 was 81.8 µM (inactive); in the experiment on SK-MEL-5 it was 61.5 µM (inactive); with TK-10, 42.7 µM (inactive); in the experiment on LOX IMVI, 57.1 µM (inactive); in the experiment with MDA-MB-231, 68.2 µM (inactive); in the experiment with NCI-H460, 60.3 µM (inactive). In addition, the GI50 in the experiment on NCI-H23 was 74.8 µM (inactive); with SF-295, > 100 µM (inactive); with MDA-N, 28.9 µM (inactive); in the experiment with MDA-MB-435 it was 77.8 µM (inactive); in the experiment on CCRF-CEM it was 23 µM (inactive); with OVCAR-5, > 100 µM (inactive). The GI50 is 59.4 µM (inactive) in the experiment with T47D, > 100 µM (inactive) in the experiment with Malme-3M, 48.3 µM with HCT-15 and > 100 µM (inactive) in the experiment with IGROV-1.

Turning to `O=C(O)Cc1ccc2nc(COC(=O)c3ccccc3)sc2c1`, the GI50 in the experiment on BT-549, in the experiment on SK-MEL-5, with TK-10, in the experiment with LOX IMVI, in the experiment on SK-OV-3 and in the experiment on MDA-MB-231 was > 100 µM (inactive) in each case. Moreover, the GI50 with NCI-H460, with NCI-H23, in the experiment on SF-295, in the experiment with MCF7, with MDA-N and in the experiment on MDA-MB-435 was > 100 µM (inactive) throughout. Moreover, the GI50 is < 0.01 µM (active) with CCRF-CEM; > 100 µM (inactive) in the experiment on OVCAR-5; > 100 µM (inactive) with T47D; > 100 µM (inactive) with Malme-3M; more than 100 µM in the experiment with HCT-15; > 100 µM (inactive) in the experiment on IGROV-1.

Take `COc1ccc2c(c1)C(=O)C1(C2)[C@H](c2ccccc2)C2C(=O)c3cc(OC)ccc3C2[C@H]1c1ccccc1` (stereo not given in full): the GI50 in the experiment on BT-549, with SK-MEL-5, with TK-10, in the experiment with LOX IMVI, in the experiment on SK-OV-3 and with MDA-MB-231 was > 100 µM (inactive) throughout. Further, the GI50 with HL-60 is 6.21 µM (inactive); with NCI-H460 it was > 100 µM (inactive); in the experiment with NCI-H23, 15.1 µM (inactive); in the experiment on SF-295, > 100 µM (inactive); with MDA-N, > 100 µM (inactive); in the experiment on MDA-MB-435 it was > 100 µM (inactive). The GI50 with CCRF-CEM is 73.5 µM (inactive); in the experiment with OVCAR-5, > 100 µM (inactive); with T47D it was > 100 µM (inactive); in the experiment with Malme-3M it was > 100 µM (inactive); in the experiment on HCT-15 it was more than 100 µM; with SF-539, > 100 µM (inactive). Moreover, the GI50 in the experiment on IGROV-1 is > 100 µM (inactive).

For the origin of these results see ChEMBL document CHEMBL1201862, “PubChem BioAssay data set” (2004).
